From patent US20240247048A1 (EMORY UNIVERSITY, priority 2021, published 2024)

How the values were obtained:
PDAC patient T cells = assay: ex vivo 9-day expansion of PDAC patient peripheral blood T cells; format: cell-based, human
Description: (FIG. 17A) Representative western blot and (FIG. 17B) quantified expression levels of VPAC1 and VPAC2; and (FIG. 17C) PD-1 and CTLA-4 in lysates of healthy human T cells expanded with plate bound human anti-CD3 antibodies for 0, 3, 6, 12, 24, 48 and 72 hours. Lower molecular weight band of 25kD shown for VPAC2-specific expression as confirmed from our VPAC2 KO model. Percentage of (FIG. 17D) CD69 expression at 24 h post activation (FIG. 17E) phosphorylation of CREB (phospho-CREB) downstream of VPAC1/2 receptor at 6 h and in CD4+ and CD8+ T cells normalized to levels in control with no peptide. PDAC patient peripheral blood T cells were expanded for 9 days with plate bound human anti-CD3 antibodies+/−ANT008 and the (FIG. 17F) percentage of Tregs was quantified using the (FIG. 17G) gating strategy shown. […] Statistical differences in FIGS. 17D and 17E were calculated via repeated measures ANOVA followed by Dunnett's post-test where each sample in the treatment group was compared to the matched sample in the control group (scrambled treated). Statistical differences in FIGS. 17F, 17H, and 17I were calculated via paired student T-test. […]
Human T cell activation and expansion. […] Cells were counted using Trypan blue dye and phenotyped via flow cytometry on day 9. […]

[1] = system: orthotopic KPC-Luc tumors; assay: orthotopic KPC-Luc pancreatic tumor model; format: in vivo, mouse; conditions: FIG. 21b
From the text: KPC.Luc cells were orthotopically implanted in the tail of the pancreas of C57BL/6 mice and treated with ANT008 and/or anti-PD-1 with n=9, 10, 8 and 11 in scrambled+IgG, ANT008+IgG, scrambled+anti-PD-1 and ANT008+anti-PD-1, respectively. (FIG. 21A) Schematic showing orthotopic implantation of KPC.Luc cells and treatment strategy with ANT008 and/or anti-PD-1. (FIG. 21B) Waterfall plot showing % change in tumor flux on day 22 relative to day 7 prior to start of treatment. (FIG. 21C) Total flux as measured by IVIS bioluminescent imaging in the different treatment groups. Isoflurane was used for anesthesia for bioluminescent imaging. Median flux represented as dashed gray line (----). Cross symbol (+) represents mice that were euthanized before day 25 due to ulceration of the tumor and circle symbol (∘) represent mouse that were imaged on day 26 via MRI imaging shown in FIG. 30. (FIG. 21D) Bar graph showing weight of pancreas on day 25 when the mice were euthanized. ‘Star’ shaped (⋆) data points indicate tumor free mice and dotted horizontal line (----) represents the average weight of healthy pancreas from naïve mice. […] P values in FIG. 21D were calculated using student ANOVA followed by Dunnett's post hoc test (comparing each treatment group with Scram+IgG). […]

For KPRRPYTDNYTRLRKQMAVKKYLNLILN [ANT008], the “T cells with an exhausted phenotype (co-expressing PD1 and Tim-3 or Lag-3)” value (PDAC patient T cells; CD4+ and CD8+ subsets, 9 days, FIG. 17h, 17i) was “significantly decreased”, the “proportion of human Tregs (CD4+ CD25+ FoxP3+)” value (PDAC patient T cells; after 9 days of T cell expansion, FIG. 17f) was “significantly decreased” and the “mice in which tumors regressed, number of mice of group” value [1] was 4/10. The “mice in which tumors regressed” value ([1]; tumor flux day 22 relative to day 7) was 40%.
